According to EP2961847B1, “NITRITE-REDUCTASE (NIRB) AS POTENTIAL ANTI-TUBERCULAR TARGET AND A METHOD TO DETECT THE SEVERITY OF TUBERCULOSIS DISEASE” (priority 2013, dated 2014):
Read-outs that look alike come from different tables or passages of the source.

How the values were obtained:
[1] = tested on: M. tuberculosis in THP-1 macrophage; format: cell-based, Mycobacterium tuberculosis
THP-1 macrophages = assay: Cytotoxic effect on THP-1 macrophages, fluorescence microscopy after DAPI staining; format: cell-based, Human; conditions: 100 µM; images after 10th day of inhibitor treatment; compared with untreated control
Experimental: THP-1 macrophage cells were grown on cover slip in 8 well microplates and washed twice with chilled methanol followed by staining with 4', 6-diamidino-2-phenylindole (DAPI) at final concentration of 300 nM. Macrophage cells were kept for 15 min at room temperature under dark condition. After incubation, cells were washed three times with distilled water and analyzed under the fluorescence microscope (Leitz Wetzlar model, Germany) at 350 nm excitation and 450 nm emission wavelengths (400 X) using 'A'filter.
To investigate the host THP-1 macrophage cells condition due to its exposure to p-HMB inhibitor before considering its effective and specific inhibition of bacilli in macrophage infection models, fluorescence microscopic picture of THP-1 cells treated with p-HMB (100 µM) was compared with the untreated control after staining with DAPI(4',6-diamidino-2-phenylindole). Fluorescence images were taken after 10th day of inhibitor treatment.

[2] = tested on: Mycobacterium tuberculosis

Compound: [N-]=[N+]=[N-] [Azide]
- decrease in intracellular viable cell count (log difference compared to control) [1]: ~1.5 log

Compound: CS(=N)(=O)CC[C@H](N)C(=O)O (stereo partly drawn) [L-MSO, L-methionine sulfoximine]
- decrease in intracellular viable cell count (log difference compared to control) [1]: ~2.5 log

Compound: O=C(O)c1cc[c]([Hg][OH])cc1 [p-HMB, para-hydroxy mercuric benzoate]
- decrease in intracellular viable cell count (log difference compared to control) ([1]; […], cell counts on 10th day PI, control without inhibitor): ~2 log
- reduction of bacilli count ([1]; summary statement: in-vitro and ex-vivo conditions): ~2 log cfu
- cytotoxic effect on macrophage (integrity of nuclear structure) (THP-1 macrophages): without exhibiting any cytotoxic effects on macrophage
- cell count reduced (log difference) [2]: ~2.5 log
- inhibition of bacilli grown under ammonia [2]: no inhibition was observed
